Laboratory results published in ChEMBL document CHEMBL1127295, “Development of a model for the delta opioid receptor pharmacophore. 2. Conformationally restricted Phe3 replacements in the cyclic delta receptor selective tetrapeptide Tyr-c[D-Cys-Phe-D-Pen]OH (JOM-13)” (J Med Chem, 1994).

Tests used:
[1] = target: T1, Delta-type opioid receptor (Mus musculus, UniProt P32300); test: Agonist activity was assessed in mouse vas deferens (MVD) smooth muscle bioassay; type: functional, tissue-based, Muscle tissue
T1 sequence (P32300 whole entry): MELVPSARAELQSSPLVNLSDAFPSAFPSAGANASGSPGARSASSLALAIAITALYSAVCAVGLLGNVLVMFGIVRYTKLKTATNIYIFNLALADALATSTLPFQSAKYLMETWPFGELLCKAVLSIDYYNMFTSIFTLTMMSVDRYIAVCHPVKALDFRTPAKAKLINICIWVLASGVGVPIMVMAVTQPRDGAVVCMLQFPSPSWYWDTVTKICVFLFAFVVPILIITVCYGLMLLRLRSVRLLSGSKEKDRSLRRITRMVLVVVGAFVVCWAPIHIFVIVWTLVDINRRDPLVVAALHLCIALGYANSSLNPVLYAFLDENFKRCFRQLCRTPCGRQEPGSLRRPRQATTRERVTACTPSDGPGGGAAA

[2] = target: T2, Mu-type opioid receptor (Cavia porcellus, UniProt P97266); test: Agonist activity was assessed in an guinea pig ileum (GPI) smooth muscle bioassay; type: functional, tissue-based
T2 sequence (P97266 whole entry): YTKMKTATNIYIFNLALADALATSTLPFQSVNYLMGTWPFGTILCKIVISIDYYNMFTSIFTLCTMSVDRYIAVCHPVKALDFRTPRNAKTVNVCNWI

[3] = target: T2, Mu-type opioid receptor; test: Binding affinity against mu opioid receptor using [3H]DAMGO in guinea pig ileum; type: tissue-based
[4] = target: T1, Delta-type opioid receptor; test: Binding affinity for delta opioid receptor using [3H]DPDPE from mouse vas deferens

SMILES	IC50 [1] [nM]	IC50 [2] [nM]	Ki [3] [nM]	Ki [4] [nM]
C[C@@H](c1ccccc1)[C@H]1NC(=O)[C@@H](NC(=O)[C@@H](N)Cc2ccc(O)cc2)CSSC(C)(C)[C@@H](C(=O)O)NC1=O	1110	> 30000	> 10000	237
CC1(C)SSC[C@H](NC(=O)[C@@H](N)Cc2ccc(O)cc2)C(=O)N[C@H](Cc2ccccc2)C(=O)N[C@@H]1C(=O)O (stereo in doubt; 3)	51.8			12.3
CC1(C)SSC[C@H](NC(=O)[C@@H](N)Cc2ccc(O)cc2)C(=O)N[C@H](Cc2ccccc2)C(=O)N[C@@H]1C(=O)O (stereo in doubt; 4)	9.72			4.8
CC1(C)SSC[C@H](NC(=O)[C@@H](N)Cc2ccc(O)cc2)C(=O)N[C@H](Cc2ccccc2)C(=O)N[C@@H]1C(=O)O (stereo in doubt; 5)	4.13			1.52
CC1(C)SSC[C@H](NC(=O)[C@@H](N)Cc2ccc(O)cc2)C(=O)N[C@H](Cc2ccccc2)C(=O)N[C@@H]1C(=O)O (stereo in doubt; 6)				70
